Among the data in patent US11578079B2, “SUMO inhibitor compounds and uses thereof” (CITY OF HOPE, priority 2018, dated 2023) are SUMO values, retold here.

Molecules are shown by their SMILES.

The assay addresses T1, SUMO (Homo sapiens, UniProt Q9UBT2).
T1 sequence (Q9UBT2 1-640): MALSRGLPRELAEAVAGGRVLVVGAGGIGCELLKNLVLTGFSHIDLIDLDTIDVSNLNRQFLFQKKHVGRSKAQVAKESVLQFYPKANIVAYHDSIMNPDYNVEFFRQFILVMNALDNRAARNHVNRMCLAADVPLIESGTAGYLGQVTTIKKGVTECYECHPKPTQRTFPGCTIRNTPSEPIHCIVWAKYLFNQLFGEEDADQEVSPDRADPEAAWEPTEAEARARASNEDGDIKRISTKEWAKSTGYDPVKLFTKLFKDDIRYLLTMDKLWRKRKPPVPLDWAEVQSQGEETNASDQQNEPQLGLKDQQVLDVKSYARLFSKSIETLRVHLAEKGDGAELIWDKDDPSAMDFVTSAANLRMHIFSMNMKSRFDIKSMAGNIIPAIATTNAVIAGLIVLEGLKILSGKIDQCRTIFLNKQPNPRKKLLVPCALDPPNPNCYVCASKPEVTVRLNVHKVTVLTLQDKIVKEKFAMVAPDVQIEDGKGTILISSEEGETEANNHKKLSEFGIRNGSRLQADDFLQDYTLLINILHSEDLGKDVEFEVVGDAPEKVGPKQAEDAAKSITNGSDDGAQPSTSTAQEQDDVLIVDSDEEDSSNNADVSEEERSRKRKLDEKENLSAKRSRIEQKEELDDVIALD
T1 sequence (Q9UBE0 1-346 partner): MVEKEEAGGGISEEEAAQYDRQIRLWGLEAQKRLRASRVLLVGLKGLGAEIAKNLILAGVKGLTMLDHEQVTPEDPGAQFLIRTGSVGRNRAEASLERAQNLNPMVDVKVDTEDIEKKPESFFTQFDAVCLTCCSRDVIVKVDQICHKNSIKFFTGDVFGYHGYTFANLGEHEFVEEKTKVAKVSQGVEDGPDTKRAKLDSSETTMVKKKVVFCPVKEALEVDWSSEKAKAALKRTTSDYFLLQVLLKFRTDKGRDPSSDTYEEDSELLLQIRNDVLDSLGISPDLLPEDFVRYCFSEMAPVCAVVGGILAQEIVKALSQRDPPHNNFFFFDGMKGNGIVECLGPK
Briefly: SUMO activity (Table I, biological activities). Type of assay: biochemical. The arrangement: key: + (less active); ++ (active); +++ (most active).
On to `CCOc1ccc(CC(Nc2ccccc2)C23C=CC(O2)C(C(=O)OC)=C3C(=O)OC)cc1` (stereo not drawn) [Compound 644], for which the SUMO result is recorded as “++”. The same measure for `COC(=O)C1=C(C(=O)OC)C2(C(Cc3cccc(-c4ccccc4)c3)Nc3ccccc3)C=CC1O2` (stereo not drawn) [Compound 682]: “+”. In the case of `COC(=O)C1=C(C(=O)NNc2ccccc2)C2(C)C=CC1(C(Cc1ccccc1)Nc1ccccc1)O2` (stereo not drawn) [Compound 295] it was “++”; in that of `COC(=O)C1=C(C(=O)OC)C2(C(Cc3ccccc3)Oc3ccccc3)C=CC1O2` (stereo not drawn) [Compound 271], “++”. For the compound `COC(=O)C1=C(C(=O)OC)C2(C(Cc3ccccc3)Nc3ccccc3)CC(O)C1O2` (stereo not drawn) [Compound 302], the SUMO result is reported as “++”. In the case of `COC(=O)C1=CC2(C(Cc3ccccc3)N(C)c3ccccc3)C=CC1O2` (stereo not drawn) [Compound 284] it was “++”. The same measure for `COC(=O)C1=C(C(=O)Nc2ccc(C)c(F)c2)C2C=CC1(C(Cc1ccccc1)Oc1ccccc1)O2` (stereo not drawn) [Compound 347]: “++”; for `COC(=O)C1=C(C(=O)OC)C2(C(Cc3ccccc3F)Nc3cc(F)cc(F)c3)C=CC1O2` (stereo not drawn) [Compound 454]: “+++”; for `COC(=O)C1=C(C(=O)OC)C2(C(Cc3cccc4ccccc34)Nc3ccccc3)C=CC1O2` (stereo not drawn) [Compound 635]: “++”. In the case of `COC(=O)C1=C(C(=O)OC)C2(C(Cc3ccccc3Cl)Nc3ccc(F)cc3)C=CC1O2` (stereo not drawn) [Compound 673] it was “++”; in that of `COC(=O)C1=C(C(=O)Nc2ccn(C)n2)C2C=CC1(C(Cc1ccccc1)Nc1ccccc1)O2` (stereo not drawn) [Compound 197], “++”; in that of `COc1ccc(NC(=O)C2=C(C(=O)O)C3(C(Cc4ccccc4)Nc4ccccc4)C=CC2O3)cc1` (stereo not drawn) [Compound 175], “+”. Consider `COC(=O)C1=C(C(=O)OC)C2(C(Cc3ccc(C4CCOCC4)cc3)Nc3ccccc3)C=CC1O2` (stereo not drawn) [Compound 681], for which the SUMO entry is “++”. On to `COC(=O)C1=C(C(=O)OC)C2(C(Nc3ccccc3)c3cccc4ccccc34)C=CC1O2` (stereo not drawn) [Compound 637], for which the SUMO result is recorded as “+++”. As to `C=CCC(Nc1ccccc1)C12C=CC(O1)C(C(=O)OC)=C2C(=O)OC` (stereo not drawn) [Compound 407], the SUMO result is on record as “++”.

For the compound `COC(=O)C1=C(C(=O)OC)C2(C(Cc3ccccc3)Nc3ccccc3)C=CC1(c1ccccc1)O2` (stereo not drawn) [Compound 696], the SUMO result is recorded as “+”. Regarding `COC(=O)C1=C(C(=O)OC)C2(C(Nc3ccccc3)c3ccc4ccccc4c3)C=CC1O2` (stereo not drawn) [Compound 632], the SUMO entry is given as “+++”. As to `COC(=O)C1=C(C(=O)OC)C2(C(Cc3ccc(C)cc3)Nc3ccccc3)C=CC1O2` (stereo not drawn) [Compound 627], the SUMO result is “+++”. Turning to `COC(=O)C1=C(C(=O)N2CCN(C)CC2)C2C=CC1(C(Cc1ccccc1)Nc1ccccc1)O2` (stereo not drawn) [Compound 164], the SUMO entry is given as “+”. In the case of `COC(=O)C1=C(C(=O)Nc2ccc(C)c(F)c2)C2C=CC1(C1OCCO1)O2` (stereo not drawn) [Compound 485] it was “+”. As for `COC(=O)C1=C(C(=O)OC)C2(C(Cc3ccccc3)Oc3cccc(CO)c3)C=CC1O2` (stereo not drawn) [Compound 520], the SUMO result is “++”. Take `COC(=O)C1=C(C(=O)OC)C2(C(Nc3ccccc3)c3ccc4ccc(OC)cc4c3)C=CC1O2` (stereo not drawn) [Compound 654]: the SUMO result is reported as “++”. As to `CNc1ccc(CC(Nc2ccccc2)C23C=CC(O2)C(C(=O)OC)=C3C(=O)OC)cc1` (stereo not drawn) [Compound 685], the SUMO result is on record as “++”. The same measure for `COC(=O)C1=C(C(=O)OC)C2(C(Cc3ccccc3)Oc3cccnc3)C=CC1O2` (stereo not drawn) [Compound 482]: “+”; for `COC(=O)C1=C(C(=O)OC)C2(C(Cc3ccc4ccccc4c3)Nc3ccccc3)C=CC1O2` (stereo not drawn) [Compound 630]: “+++”; for `COC(=O)C1=C(C(=O)OC)C2(C(Cc3ccc(C4CC4)cc3)Nc3ccccc3)C=CC1O2` (stereo not drawn) [Compound 693]: “++”. In the case of `COC(=O)C1=C(C(=O)OC)C2(C(Cc3ccccc3)N(C)c3ccccc3)C=CC1O2` (stereo not drawn) [Compound 236], the SUMO entry was “++”.

Consider `COC(=O)C1=C(C(=O)OC)C2(C(Cc3ccc(F)cc3F)Nc3ccccc3)C=CC1O2` (stereo not drawn) [Compound 639], for which the SUMO entry is recorded as “++”. The same measure for `COC(=O)C1=C(C(=O)NC2CCN(C(=O)OC(C)(C)C)CC2)C2C=CC1(C(Cc1ccccc1)Nc1ccccc1)O2` (stereo not drawn) [Compound 198]: “+”.

As to `COC(=O)C1=C(C(=O)OC)C2(C(Nc3ccccc3)c3ccc(CN4CCOCC4)cc3)C=CC1O2` (stereo not drawn) [Compound 413], the SUMO entry is “+”. The same measure for `COC(=O)C1=C(C(=O)OC)C2(C(Cc3ccccc3Cl)Oc3ccccc3)C=CC1O2` (stereo not drawn) [Compound 687]: “+”; for `CNC(=O)Cc1ccc(CC(Nc2ccccc2)C23C=CC(O2)C(C(=O)OC)=C3C(=O)OC)cc1` (stereo not drawn) [Compound 665]: “++”. The same measure for `COC(=O)C1=C(C(=O)NC2CCN(C)CC2)C2CCC1(C(Cc1ccccc1)Nc1cc(F)cc(F)c1)O2` (stereo not drawn) [Compound 303]: “++”. The same measure for `COC(=O)C1=C(C(=O)NC2CCN(c3ccccc3)CC2)C2C=CC1(C(Cc1ccccc1)Nc1ccccc1)O2` (stereo not drawn) [Compound 290]: “+”.

Take `CCOC(=O)C1=C(C(=O)Nc2cccc(F)c2C)C2C=CC1(C(Nc1ccccc1)c1ccc(CN3CCOCC3)cc1)O2` (stereo not drawn) [Compound 603]: the SUMO entry is “++”.

Take `COC(=O)C1=C(C(=O)Nc2ccc(OC)cc2)C2C=CC1(C(Cc1ccccc1)Oc1ccc(F)cc1)O2` (stereo not drawn) [Compound 479]: the SUMO result is “++”. The same measure for `COC(=O)C1=C(C(=O)OC)C2(C(Cc3ccc(-c4ccccc4)cc3)Nc3ccccc3)C=CC1O2` (stereo not drawn) [Compound 677]: “++”; for `CCOC(=O)C1=C(C(=O)OCC)C2(C(Nc3ccccc3)c3ccc(CN4CCOCC4)cc3)C=CC1O2` (stereo not drawn) [Compound 659]: “++”; for `COC(=O)C1=C(C(=O)NCCCCCNC(=O)OCC2c3ccccc3-c3ccccc32)C2C=CC1(C(Cc1ccccc1)Nc1cc(F)cc(F)c1)O2` (stereo not drawn) [Compound 244]: “+”.

For `CCC12C=CC(C(Cc3ccccc3)Nc3ccccc3)(O1)C(C(=O)OC)=C2C(=O)OC` (stereo not drawn) [Compound 629], the SUMO entry is listed as “++”. Consider `COC(=O)C1=C(C(=O)OC)C2(C(Cc3ccc(Cl)cc3Cl)Nc3ccccc3)C=CC1O2` (stereo not drawn) [Compound 641], for which the SUMO result is on record as “+++”. The same measure for `COC(=O)C1=C(C(=O)Nc2ccc(OC(F)(F)F)cc2)C2C=CC1(C(Cc1ccccc1)Nc1ccccc1)O2` (stereo not drawn) [Compound 196]: “+”; for `COC(=O)C1=C(C(=O)OC)C2(C(Cc3ccccc3Cl)Nc3ccccc3)CCC1O2` (stereo not drawn) [Compound 689]: “+”.

For the compound `COC(=O)C1=C(C(=O)OC)C2(C(Cc3ccc(C(C)C)cc3)Nc3ccccc3)C=CC1O2` (stereo not drawn) [Compound 670], the SUMO entry is given as “++”. Regarding `COC(=O)C1=C(C(=O)OC)C2(C(Cc3ccc(Br)cc3)Nc3ccccc3)C=CC1O2` (stereo not drawn) [Compound 652], the SUMO entry was “++”. In the case of `COC(=O)C1=C(C(=O)OC2CCN(C)CC2)C2C=CC1(C(Cc1ccccc1)Nc1ccccc1)O2` (stereo not drawn) [Compound 286] it was “++”; in that of `COC(=O)C1=C(C(=O)Nc2ccc(OC)cc2)C2C=CC1(C(Cc1ccccc1)Nc1ccccc1)O2` (stereo not drawn) [Compound 194], “++”.

Turning to `COC(=O)C1=C(C(=O)OC)C2(C(Cc3ccc(OCC(C)C)cc3)Nc3ccccc3)C=CC1O2` (stereo not drawn) [Compound 651], the SUMO entry is “++”.

Take `COC(=O)C1=C(C(=O)OC)C2(C(CCCN3CCOCC3)Nc3ccccc3)C=CC1O2` (stereo not drawn) [Compound 193]: the SUMO entry is reported as “+”. In the case of `COC(=O)C1=C(C(=O)Nc2ccc(Oc3ccccc3)cc2)C2C=CC1(C(Cc1ccccc1)Nc1ccccc1)O2` (stereo not drawn) [Compound 296] it was “++”. The same measure for `COC(=O)C1=C(C(=O)OC)C2(C(Cc3ccc(Nc4ccccc4)cc3)Nc3ccccc3)C=CC1O2` (stereo not drawn) [Compound 683]: “+”; for `CCOC(=O)C1=C(C(=O)OCC)C2(C(Cc3ccccc3)Nc3c(F)cccc3F)C=CC1O2` (stereo not drawn) [Compound 230]: “++”; for `COC(=O)C1=C(C(=O)OC)C2(C(Cc3ccc(OC)cc3)Nc3ccccc3)C=CC1O2` (stereo not drawn) [Compound 633]: “+++”. Take `COC(=O)C1=C(C(=O)Nc2ccc(C)c(F)c2)C2C=CC1(C(Cc1ccccc1)Nc1ccc(F)cc1)O2` (stereo not drawn) [Compound 346]: the SUMO entry is recorded as “++”. The same measure for `COC(=O)C1=C(C(=O)OC)C2(C(Cc3ccccc3)Nc3ccccc3)C=CC1(C)O2` (stereo not drawn) [Compound 259]: “++”. Take `CCOc1cccc(NC(Cc2ccccc2)C23C=CC(O2)C(C(=O)OC)=C3C(=O)OC)c1` (stereo not drawn) [Compound 669]: the SUMO result is “++”. In the case of `COC(=O)C1=C(C(=O)OC)C2(C(Cc3cccnc3Cl)Nc3ccccc3)C=CC1O2` (stereo not drawn) [Compound 668] it was “++”.
